Article PMC11001709, “Anti-toxoplasma activity and DNA-binding of copper(II) and zinc(II) coordination compounds with 5-nitroimidazole-based ligands” (Journal of Biological Inorganic Chemistry, 2023)

Legend:
[1] = Distribution coefficient LogD7.4, shake-flask 1-octanol/MOPS buffer; format: physicochemical; details: octanol/water (MOPS buffer 10^–2 M), 25 °C, 3 h
Experimental: Solutions between 100 and 10 µM of the free ligands (cenz and onz) and the coordination compounds 3–10 were prepared in a MOPS buffer pH 7.4 as the aqueous phase and in 1-octanol as the organic phase. The absorption at 320 nm and 310 nm was determined for the aqueous and organic phase respectively by electronic spectroscopy (UV–Vis). Through a linear regression (concentration vs. absorption) the molar extinction coefficient of each compound in both phases was determined (Table 3). The lipophilicity was calculated in the 1-octanol/water system from the shake flask method using Eq. 1 [39]:1 […] where, Co is the final concentration in the organic phase and Cw is the final concentration in the aqueous phase (MOPS buffer at 10^–2 M pH 7.4). Both phases were presaturated with 50 µM solutions of the free ligands or 500 µM of each coordination compound and their UV spectrum was recorded. Both phases were combined and kept stirring for 3 h at 25 °C and in the absence of light. Subsequently, the mixture was centrifuged at 400g and the concentration in both phases was determined by UV–Vis spectroscopy using the Beer-Lambert law. The assays were performed in triplicate.
The T gondii parasite is an apicomplex organism; it requires a host cell to live, so it is important that the drugs used against the parasite have easy access to the cell. The lipophilicity of a compound is an important physicochemical property to determine its ability to permeate the biological membrane through passive diffusion; which usually is measured from the distribution coefficient logD7.4 = log(Co/Cw), in n-octanol/water. The shake-flask method was used to determine the LogD7.4 values from the molar extinction coefficients of the coordination compounds and the ligands in the two solvents (Table 3).

ct-DNA = assay: Circular dichroism of ct-DNA; format: binding, calf; details: [DNA]b = 50 µM, [complex]/[DNA] 0-2, 1 h 37 °C
Experimental: For the UV–Vis, fluorescence and circular dichroism assays the concentration of ct-DNA was determined on a Varian Cary 100 Scan spectrophotometer from the absorption at 260 nm and the corresponding molar absorptivity of 6600 M^−1 cm^−1 (nucleobase concentration). The stock solutions of the coordination compounds and the free ligands were prepared in cacodylate/NaCl buffer (1 mM cacodylic acid and 20 mM sodium chloride) at pH 7.25. The final samples contained a DMSO concentration of 0.2%.
Circular dichroism (CD) spectra were recorded using a JASCO-815 spectropolarimeter, equipped with xenon-arc lamp of 450 W. The sample compartment was air-purged with N2 before use. For the measurements, a quartz cuvette with an optical path of 5 mm was used. A solution of 25 µM (in base pairs) of ct-DNA in cacodylate/NaCl buffer was incubated for 1 h at 37 °C with increasing amounts of coordination compounds (0–50 µM). The CD spectra were recorded at room temperature.
The interaction of small molecules with DNA can modify these CD signals depending on the type of binding. Intercalative interactions increase the intensity of the signals, as the result of an increase of the stability of the B conformation, whereas groove binding or covalent interactions tend to decrease the intensity of these signals, which are moreover displaced. The CD spectra for both ligands and their copper(II) and zinc(II) complexes were obtained at constant concentration of ct-DNA, increasing the complex concentration up to two equivalents ([complex]/[DNA] ratios of 0, 0.2, 0.4, 1, 2) with respect to the nucleobases concentration ([DNA]b = 50 µM).

pBR322 plasmid DNA = assay: Agarose gel electrophoresis, DNA cleavage; format: biochemical
Experimental: Electrophoresis assays were performed in 1.5% agarose gel and 1× TBE buffer using the DNA plasmid pBR322. The plasmid (15 µM base pairs) was incubated with 10 and 50 μM concentrations of the coordination compounds for 1 h at 37 °C in presence and absence of ascorbic acid (50 μM) as reducing agent and hydrogen peroxide (500 µM) as ROS generator in a final volume of 20 μL. The DNA-cleaving compound [Cu(phen)2(H2O)](NO3)2 was used as reference. The samples were loaded into the gel with 4 μL of a loading buffer (30% glycerol, 5 mM xylene cyanol), and electrophoresis was performed in 1× TBE at 100 V for 1 h in a Bio-Rad horizontal tank. Subsequently, the gel was stained with SYBR™ Safe overnight and images were acquired with a Gel Doc EZ Imager instrument (Bio-Rad).
Distinct forms of pBR322 plasmid DNA are commonly observed by gel electrophoresis due to the conformational changes that present distinct electrophoretic mobility: (1) supercoiled DNA (Form I) that migrates faster on the gel, (2) circular nicked (Form II), obtained from a one-strand scission, has a slower migration through the gel and (3) linear form (Form III) is generated when both strands are cleaved and migrates between forms I and II [54]. The interaction of the free ligands and their copper(II) and zinc(II) coordination compounds with pBR322 was investigated in presence of H2Asc (50 μM) as reducing agent and H2O2 (500 μM) as ROS generator. Solutions of 10 and 50 µM of the coordination compounds were incubated with the DNA at 37 °C for 1 h.

[2] = compound 10 (mM in the source), + H2Asc
[3] = compound 10 (mM in the source), + H2Asc + H2O2
[4] = compound 10 (mM in the source), + H2O2
[5] = compound 10 (mM in the source), no additive
[6] = compound 50 (mM in the source), + H2Asc
[7] = compound 50 (mM in the source), + H2Asc + H2O2
[8] = compound 50 (mM in the source), + H2O2
[9] = compound 50 (mM in the source), no additive

Row | Compound | LogD7.4 [1] | effect on CD spectrum of ct-DNA (bands at 275 and 245 nm) (ct-DNA) | %Damage (pBR322 plasmid DNA; [2]) | %Nicked (pBR322 plasmid DNA; [2]) | %Supercoiled (pBR322 plasmid DNA; [2]) | %Damage (pBR322 plasmid DNA; [3]) | %Nicked (pBR322 plasmid DNA; [3]) | %Supercoiled (pBR322 plasmid DNA; [3]) | %Damage (pBR322 plasmid DNA; [4]) | %Nicked (pBR322 plasmid DNA; [4]) | %Supercoiled (pBR322 plasmid DNA; [4]) | %Damage (pBR322 plasmid DNA; [5]) | %Nicked (pBR322 plasmid DNA; [5]) | %Supercoiled (pBR322 plasmid DNA; [5]) | %Damage (pBR322 plasmid DNA; [6]) | %Damage (pBR322 plasmid DNA; [7]) | %Damage (pBR322 plasmid DNA; [8]) | %Damage (pBR322 plasmid DNA; [9]) | %Nicked (pBR322 plasmid DNA; [9]) | %Supercoiled (pBR322 plasmid DNA; [9]) | further results
1 | Cc1ncc([N+](=O)[O-])n1CC(O)CCl.Cc1ncc([N+](=O)[O-])n1CC(O)CCl.[Cl-].[Cl-].[Cu+2] (centres unmarked) [[Cu(onz)2Cl2]] | 0.61 | decrease of the intensity of the positive and negative bands | 58.10% | 33.00% | 41.90% | 80.60% | 46.50% | 19.40% | 16.40% | 6.10% | 83.60% | 36.40% | 6.40% | 63.60% | 100.00% | 100.00% | 100.00% | 33.80% | 9.70% | 66.20% | –
2 | Cc1ncc([N+](=O)[O-])n1CCCl.Cc1ncc([N+](=O)[O-])n1CCCl.[Br][Zn][Br] [[Zn(cenz)2Br2]] | 0.82 | spectra changes are minor | 28.40% | 6.40% | 71.60% | 89.00% | 75.80% | 11.00% | 19.30% | 27.20% | 80.70% | 6.20% | 3.00% | 93.80% | 96.10% | 78.40% | 98.40% | 11.60% | 2.20% | 88.40% | %Nicked (pBR322 plasmid DNA; [6]): 39.50%; %Supercoiled (pBR322 plasmid DNA; [6]): 3.90%; %Nicked (pBR322 plasmid DNA; [7]): 10.40%; %Supercoiled (pBR322 plasmid DNA; [7]): 21.60%; %Nicked (pBR322 plasmid DNA; [8]): 63.30%; %Supercoiled (pBR322 plasmid DNA; [8]): 1.60%
3 | Cc1ncc([N+](=O)[O-])n1CC(O)CCl.Cc1ncc([N+](=O)[O-])n1CC(O)CCl.[Cl][Zn][Cl] (centres unmarked) [[Zn(onz)2Cl2]] | 0.90 | spectra changes are minor | 91.2% | 65.70% | 8.80% | 67.90% | 44.00% | 32.10% | 10.80% | 5.90% | 89.20% | 14.6% | – | 85.40% | 100% | 100.00% | 78.30% | 32.9% | 3.90% | 67.10% | %Nicked (pBR322 plasmid DNA; [6]): 4.80%; %Nicked (pBR322 plasmid DNA; [8]): 47.60%; %Supercoiled (pBR322 plasmid DNA; [8]): 21.70%
4 | Cc1n(CC(O)CCl)c([N+](=O)[O-])c[n+]1[Cu-2]([Br])([Br])[n+]1cc([N+](=O)[O-])n(CC(O)CCl)c1C (centres unmarked) [[Cu(onz)2Br2]] | 0.56 | decrease of the intensity of the positive and negative bands | 44.70% | 35.60% | 55.30% | 100.00% | – | – | 100.00% | – | – | 7.80% | – | 92.20% | 100.00% | 100.00% | 100.00% | 6.70% | 23.00% | 93.30% | –
5 | Cc1ncc([N+](=O)[O-])n1CCCl.Cc1ncc([N+](=O)[O-])n1CCCl.[Br][Cu][Br] [[Cu(cenz)2Br2]] | 0.62 | decrease of the intensity of the positive and negative bands | 43.90% | – | 56.10% | 100.00% | – | – | 84.00% | 37.10% | 16.00% | 37.80% | 11.30% | 62.20% | 100.00% | 100.00% | 100.00% | 33.80% | 7.50% | 66.20% | –
6 | Cc1ncc([N+](=O)[O-])n1CCCl.Cc1ncc([N+](=O)[O-])n1CCCl.[Cl][Cu][Cl] [[Cu(cenz)2Cl2]] | 0.69 | decrease of the intensity of the positive and negative bands | 33.20% | 16.60% | 66.80% | 100.00% | – | – | 83.50% | 84.30% | 16.50% | 12.00% | – | 88.00% | 100.00% | 100.00% | 100.00% | 31.50% | – | 68.50% | –
